In patent US10273241B2 (President and Fellows of Harvard College, priority 2013, dated 2019):

Tested on: MOLM-14
Assay: Cell growth assay, MOLM-14 AML cell line
Type: cell-based, human
Conditions: Homo sapiens, MOLM-14, 168 h; day 7; printed as symbol; read-out: MOL M14 GI50 day 7
Experimental: (§1) For all other cell lines, compounds were serially diluted in medium and dispensed in triplicate in 96-well plates (0.1% DMSO final for assay) followed by the addition of exponentially growing cells at densities ranging from 5,000 to 30,000 cells/well. Cells were also seeded into 2 additional control wells containing vehicle (0.1% DMSO). […] To determine the estimated cell number in each well, cells that were counted in the control well were diluted 3-fold for an 8-point dilution series, and transferred to 384-well plates in duplicate, 20 μL per well. Cells in all other wells were diluted 4-fold and transferred to 384-well plates in duplicate, 20 μL per well. 20 μL of CellTiter-Glo (Promega) was subsequently added to all wells and luminescence was detected using a SPECTRAmax M3. The control well dilution series was fit to a linear regression and used as a standard for calculating the estimated cell number for each well. For days 7 and 10, total estimated cell number represents the split-adjusted theoretical cell number.

GI50 [nM]	SMILES
> 1000	CN(C)[C@H]1CCC2=CC3=CC[C@]4(C)[C@@H](NCc5cccnc5)CC[C@H]4C34CC[C@]2(C1)O4 [46B, β-dimethylamine aminomethylpyridine]
> 1000	CN(C)[C@H]1CCC2=CC3=CC[C@]4(C)C(C(=O)Nc5cccnc5)=CC[C@H]4[C@@]34CCC2(C1)O4 [49B, β-dimethylamine 17,18-unsaturated amidepyridine]
> 1000	CN(C)[C@H]1CCC2=CC3=CC[C@]4(C)[C@@H](C(=O)Nc5cccnc5)CC[C@H]4[C@@]34CCC2(C1)O4 [50B, β-dimethylamine amidepyridine]
> 1000	CN(C)[C@H]1CCC2=CC3=CC[C@]4(C)C(c5ccc6cnncc6c5)=CC[C@H]4C34CC[C@]2(C1)O4 [55B, β-dimethylamine 17,18-unsaturated phthalazine]
> 1000	CN(C)[C@H]1CCC2=CC3=CC[C@]4(C)C(c5ccc6cn[nH]c6c5)=CC[C@H]4C34CC[C@]2(C1)O4 [58B, β-dimethylamine 17,18-unsaturated 6-indazole]
> 1000	CN(C)[C@H]1CCC2=CC3=CC[C@]4(C)C(c5ccc6[nH]ncc6c5)=CC[C@H]4C34CC[C@]2(C1)O4 [61B, β-dimethylamine 17,18-unsaturated 5-indazole]

Same assay, conditions: Homo sapiens, MOLM-14, 240 h, read-out: MOL M14 G150 day 10 (nM)

SMILES	IC50 [nM]
CCN(C(C)C)[C@H]1CCC2=CC3=CC[C@]4(C)[C@@H](c5ccc6ccncc6c5)CC[C@H]4[C@@]34CC[C@]2(C1)O4 [34B]	15

Same assay, conditions: Homo sapiens, MOLM-14, 240 h; day 10; cells passaged, fresh compound added on days 3 and 7; read-out: MOL M14 G150 day 10

GI50 [nM]	SMILES
14	C[C@]12CC=C3C=C4CC[C@@H]([N+](C)(C)[O-])CC45CC[C@]3(O5)[C@@H]1CC[C@@H]2c1ccc2ccncc2c1 [14ANO, 14A-N-Oxide]
3	C[C@]12CC=C3C=C4CC[C@@H](N5CCC5)CC45CC[C@]3(O5)[C@@H]1CC[C@@H]2c1ccc2ccncc2c1 [18A, α-azetidine]
10	C[C@]12CC=C3C=C4CC[C@H](N5CCCC5)C[C@]45CC[C@]3(O5)[C@@H]1CC[C@@H]2c1ccc2ccncc2c1 [19B, β-pyrrolidine]
50	CN[C@H]1CCC2=CC3=CC[C@]4(C)C(c5ccc6ccncc6c5)CC[C@H]4C34CC[C@]2(C1)O4 (stereo partly drawn) [24B, β-monomethylamine]
6	[2H]C([2H])([2H])N([C@H]1CCC2=CC3=CC[C@]4(C)C(c5ccc6ccncc6c5)CC[C@H]4[C@@]34CC[C@]2(C1)O4)C([2H])([2H])[2H] (stereo partly drawn) [26B, β-deuterodimethylamine]
10	COCCN(C)[C@H]1CCC2=CC3=CC[C@]4(C)C(c5ccc6ccncc6c5)CC[C@H]4[C@@]34CC[C@]2(C1)O4 (stereo partly drawn) [27B, β-2-methoxyethylmethylamine]
15	COCCN(CCOC)[C@H]1CCC2=CC3=CC[C@]4(C)C(c5ccc6ccncc6c5)CC[C@H]4[C@@]34CC[C@]2(C1)O4 (stereo partly drawn) [28B, β-bis-2-methoxyethylamine]
14	CN(CCF)[C@H]1CCC2=CC3=CC[C@]4(C)C(c5ccc6ccncc6c5)CC[C@H]4[C@@]34CC[C@]2(C1)O4 (stereo partly drawn) [29B, β-2-fluoroethylmethylamine]
55	CN(CC(F)F)[C@H]1CCC2=CC3=CC[C@]4(C)C(c5ccc6ccncc6c5)CC[C@H]4[C@@]34CC[C@]2(C1)O4 (stereo partly drawn) [30B, β-2,2-difluoroethylmethylamine]
55	CC(C)N[C@H]1CCC2=CC3=CC[C@]4(C)[C@@H](c5ccc6ccncc6c5)CC[C@H]4[C@@]34CC[C@]2(C1)O4 [32B, β-isopropylamine]
60	CC(C)N(C)[C@H]1CCC2=CC3=CC[C@]4(C)[C@@H](c5ccc6ccncc6c5)CC[C@H]4[C@@]34CC[C@]2(C1)O4 [33B, β-isopropylmethylamine]

SMILES	GI50 [nM]
C[C@]12CC=C3C=C4CC[C@H](N5[C@H]6CC[C@@H]5CC6)C[C@]45CC[C@]3(O5)[C@@H]1CC[C@@H]2c1ccc2ccncc2c1 [31B, β-7-Azabicyclo[2.2.1]heptane]	100

Same assay, conditions: Homo sapiens, MOLM-14; day 7; fresh compound added on day 3; read-out: MOL M14 GI50 day 7

GI50 [nM]	SMILES
16	C[C@]12CC=C3C=C4CC[C@H](N5CCCC5)C[C@]45CC[C@]3(O5)[C@@H]1CC[C@@H]2c1ccc2ccncc2c1 [19B, β-pyrrolidine]

Tested on: MV4;11
Assay: Cell growth assay, MV4;11 AML cell line
Type: cell-based, human
Conditions: Homo sapiens, MV4-11, 168 h; day 7; printed as symbol; read-out: MV4;11 GI50 day 7
Experimental: as §1

GI50 [nM]	SMILES
> 1000	CN(C)[C@H]1CCC2=CC3=CC[C@]4(C)[C@@H](NCc5cccnc5)CC[C@H]4C34CC[C@]2(C1)O4 [46B, β-dimethylamine aminomethylpyridine]
> 1000	CN(C)[C@H]1CCC2=CC3=CC[C@]4(C)C(C(=O)Nc5cccnc5)=CC[C@H]4[C@@]34CCC2(C1)O4 [49B, β-dimethylamine 17,18-unsaturated amidepyridine]
> 1000	CN(C)[C@H]1CCC2=CC3=CC[C@]4(C)[C@@H](C(=O)Nc5cccnc5)CC[C@H]4[C@@]34CCC2(C1)O4 [50B, β-dimethylamine amidepyridine]
> 1000	CN(C)[C@H]1CCC2=CC3=CC[C@]4(C)C(c5ccc6cnncc6c5)=CC[C@H]4C34CC[C@]2(C1)O4 [55B, β-dimethylamine 17,18-unsaturated phthalazine]
> 1000	CN(C)[C@H]1CCC2=CC3=CC[C@]4(C)C(c5ccc6cn[nH]c6c5)=CC[C@H]4C34CC[C@]2(C1)O4 [58B, β-dimethylamine 17,18-unsaturated 6-indazole]
> 1000	CN(C)[C@H]1CCC2=CC3=CC[C@]4(C)C(c5ccc6[nH]ncc6c5)=CC[C@H]4C34CC[C@]2(C1)O4 [61B, β-dimethylamine 17,18-unsaturated 5-indazole]

Same assay, conditions: Homo sapiens, MV4-11, 240 h, read-out: MV 4;11 GI50 day 10 (nM)

SMILES	GI50 [nM]
CCN(C(C)C)[C@H]1CCC2=CC3=CC[C@]4(C)[C@@H](c5ccc6ccncc6c5)CC[C@H]4[C@@]34CC[C@]2(C1)O4 [34B]	8.5

Same assay, conditions: Homo sapiens, MV4-11, 240 h; day 10; cells passaged, fresh compound added on days 3 and 7; read-out: MV 4;11 GI50 day 10

GI50 [nM]	SMILES
1.75	C[C@]12CC=C3C=C4CC[C@@H]([N+](C)(C)[O-])CC45CC[C@]3(O5)[C@@H]1CC[C@@H]2c1ccc2ccncc2c1 [14ANO, 14A-N-Oxide]
1	C[C@]12CC=C3C=C4CC[C@@H](N5CCC5)CC45CC[C@]3(O5)[C@@H]1CC[C@@H]2c1ccc2ccncc2c1 [18A, α-azetidine]
8	C[C@]12CC=C3C=C4CC[C@H](N5CCCC5)C[C@]45CC[C@]3(O5)[C@@H]1CC[C@@H]2c1ccc2ccncc2c1 [19B, β-pyrrolidine]
20	CN[C@H]1CCC2=CC3=CC[C@]4(C)C(c5ccc6ccncc6c5)CC[C@H]4C34CC[C@]2(C1)O4 (stereo partly drawn) [24B, β-monomethylamine]
4	[2H]C([2H])([2H])N([C@H]1CCC2=CC3=CC[C@]4(C)C(c5ccc6ccncc6c5)CC[C@H]4[C@@]34CC[C@]2(C1)O4)C([2H])([2H])[2H] (stereo partly drawn) [26B, β-deuterodimethylamine]
7	COCCN(C)[C@H]1CCC2=CC3=CC[C@]4(C)C(c5ccc6ccncc6c5)CC[C@H]4[C@@]34CC[C@]2(C1)O4 (stereo partly drawn) [27B, β-2-methoxyethylmethylamine]
9.5	COCCN(CCOC)[C@H]1CCC2=CC3=CC[C@]4(C)C(c5ccc6ccncc6c5)CC[C@H]4[C@@]34CC[C@]2(C1)O4 (stereo partly drawn) [28B, β-bis-2-methoxyethylamine]
7	CN(CCF)[C@H]1CCC2=CC3=CC[C@]4(C)C(c5ccc6ccncc6c5)CC[C@H]4[C@@]34CC[C@]2(C1)O4 (stereo partly drawn) [29B, β-2-fluoroethylmethylamine]
20	CN(CC(F)F)[C@H]1CCC2=CC3=CC[C@]4(C)C(c5ccc6ccncc6c5)CC[C@H]4[C@@]34CC[C@]2(C1)O4 (stereo partly drawn) [30B, β-2,2-difluoroethylmethylamine]
27	CC(C)N[C@H]1CCC2=CC3=CC[C@]4(C)[C@@H](c5ccc6ccncc6c5)CC[C@H]4[C@@]34CC[C@]2(C1)O4 [32B, β-isopropylamine]
22	CC(C)N(C)[C@H]1CCC2=CC3=CC[C@]4(C)[C@@H](c5ccc6ccncc6c5)CC[C@H]4[C@@]34CC[C@]2(C1)O4 [33B, β-isopropylmethylamine]

SMILES	GI50 [nM]
C[C@]12CC=C3C=C4CC[C@H](N5[C@H]6CC[C@@H]5CC6)C[C@]45CC[C@]3(O5)[C@@H]1CC[C@@H]2c1ccc2ccncc2c1 [31B, β-7-Azabicyclo[2.2.1]heptane]	75

Same assay, conditions: Homo sapiens, MV4-11; day 7; fresh compound added on day 3; read-out: MV4;11 GI50 day 7

GI50 [nM]	SMILES
15	C[C@]12CC=C3C=C4CC[C@H](N5CCCC5)C[C@]45CC[C@]3(O5)[C@@H]1CC[C@@H]2c1ccc2ccncc2c1 [19B, β-pyrrolidine]
